From PubChem BioAssay AID1963847 (Molecular Pharmacology Branch, DTP, NCI, 2024)
pIC50: −log10 of the molar value.

System: 415267-285-R-J2-PDC complex spheroid viability
Experiment: Anticancer human tumor 415267-285-R-J2-PDC patient-derived breast carcinoma cell line growth inhibition [POLQ]
Settings: for pIC50: curve of first compound; for viability, T/C: stronger effect = lower value; active means viability on the fitted dose curve at most 10% of control; inactive means the rest
In short: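 PDC + HUVEC + MSC complex spheroids; POLQ inhibitors ± partner drugs; top conc. at/near clinical Cmax, else 10 microM (SN-38 1 microM), half-log dilutions; 37 degrees C, 5% CO2.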

[1] = second compound 0.0316 µM, first compound 0.0316 µM
[2] = second compound 0.0316 µM, first compound 0.1 µM
[3] = second compound 0.0316 µM, first compound 0.316 µM
[4] = second compound 0.0316 µM, first compound 1 µM
[5] = second compound 0.0316 µM, first compound 3.16 µM
[6] = second compound 0.0316 µM, first compound 10 µM
[7] = second compound 0.1 µM, first compound 0.0316 µM
[8] = second compound 0.1 µM, first compound 0.1 µM
[9] = second compound 0.1 µM, first compound 0.316 µM
[10] = second compound 0.1 µM, first compound 1 µM
[11] = second compound 0.1 µM, first compound 3.16 µM
[12] = second compound 0.1 µM, first compound 10 µM
[13] = second compound 0.316 µM, first compound 0.0316 µM
[14] = second compound 0.316 µM, first compound 0.1 µM
[15] = second compound 0.316 µM, first compound 0.316 µM
[16] = second compound 0.316 µM, first compound 1 µM
[17] = second compound 0.316 µM, first compound 3.16 µM
[18] = second compound 0.316 µM, first compound 10 µM
[19] = second compound 1 µM, first compound 0.0316 µM
[20] = second compound 1 µM, first compound 0.1 µM
[21] = second compound 1 µM, first compound 0.316 µM
[22] = second compound 1 µM, first compound 1 µM
[23] = second compound 1 µM, first compound 3.16 µM
[24] = second compound 1 µM, first compound 10 µM
[25] = second compound 3.16 µM, first compound 0.0316 µM
[26] = second compound 3.16 µM, first compound 0.1 µM
[27] = second compound 3.16 µM, first compound 0.316 µM
[28] = second compound 3.16 µM, first compound 1 µM
[29] = second compound 3.16 µM, first compound 3.16 µM
[30] = second compound 3.16 µM, first compound 10 µM
[31] = second compound 10 µM, first compound 0.0316 µM
[32] = second compound 10 µM, first compound 0.1 µM
[33] = second compound 10 µM, first compound 0.316 µM
[34] = second compound 10 µM, first compound 1 µM
[35] = second compound 10 µM, first compound 3.16 µM
[36] = second compound 10 µM, first compound 10 µM
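Further: spheroids exposed to compounds for one week before readout.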
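Wherever viability, T/C is given: luminescence used as stand-in measure of viable cells; 100% = DMSO vehicle control viability.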

CC1COCCN1c1cc(-c2ccnn2C)c2ccnc(-c3ccn[nH]3)c2n1 (stereo unspecified) + Cc1cccc(N(C)C(=O)C2C(O)CCN2c2nc(C)cc(C(F)(F)F)c2C#N)c1
7.44: pIC50 (second compound 10 µM)
inactive: viability, T/C [1] 44% | viability, T/C [2] 17.2% | viability, T/C [7] 41.2% | viability, T/C [8] 11.3% | viability, T/C [13] 47.2% | viability, T/C [14] 13.3% | viability, T/C [19] 52.6% | viability, T/C [20] 10.9% | viability, T/C [25] 52.2% | viability, T/C [26] 10.7% | viability, T/C [31] 53.4% | viability, T/C [32] 22.9%
> 7.50: pIC50 (second compound 0.0316 µM) | pIC50 (second compound 0.1 µM) | pIC50 (second compound 0.316 µM)
7.47: pIC50 (second compound 1 µM) | pIC50 (second compound 3.16 µM)
active: viability, T/C [3] 6.77% | viability, T/C [4] 4.72% | viability, T/C [5] 4.84% | viability, T/C [6] 4.51% | viability, T/C [9] 6.11% | viability, T/C [10] 4.5% | viability, T/C [11] 4.14% | viability, T/C [12] 5.26% | viability, T/C [15] 5.28% | viability, T/C [16] 4.19% | viability, T/C [17] 4.21% | viability, T/C [18] 4.67% | viability, T/C [21] 6.08% | viability, T/C [22] 4.95% | viability, T/C [23] 4.35% | viability, T/C [24] 4.81% | viability, T/C [27] 5.26% | viability, T/C [28] 4.41% | viability, T/C [29] 4.33% | viability, T/C [30] 4.61% | viability, T/C [33] 5.93% | viability, T/C [34] 4.73% | viability, T/C [35] 5.68% | viability, T/C [36] 4.55%

CC1COCCN1c1cc(C2(S(C)(=N)=O)CC2)nc(-c2ccnc3[nH]ccc23)n1 (stereo unspecified) + Cc1cccc(N(C)C(=O)C2C(O)CCN2c2nc(C)cc(C(F)(F)F)c2C#N)c1
6.33: pIC50 (second compound 1 µM)
inactive: viability, T/C [1] 88.4% | viability, T/C [2] 102% | viability, T/C [3] 70.3% | viability, T/C [4] 15.8% | viability, T/C [7] 92.8% | viability, T/C [8] 96.3% | viability, T/C [9] 65% | viability, T/C [10] 14.3% | viability, T/C [13] 102% | viability, T/C [14] 98.7% | viability, T/C [15] 62.8% | viability, T/C [16] 17.7% | viability, T/C [19] 106% | viability, T/C [20] 107% | viability, T/C [21] 70.2% | viability, T/C [22] 12.4% | viability, T/C [25] 94.2% | viability, T/C [26] 94.8% | viability, T/C [27] 62.4% | viability, T/C [28] 12.5% | viability, T/C [31] 91.6% | viability, T/C [32] 102% | viability, T/C [33] 72.7% | viability, T/C [34] 15.7%
6.37: pIC50 (second compound 3.16 µM)
active: viability, T/C [5] 6.51% | viability, T/C [6] 5.21% | viability, T/C [11] 5.97% | viability, T/C [12] 4.58% | viability, T/C [17] 6.78% | viability, T/C [18] 4.96% | viability, T/C [23] 6.47% | viability, T/C [24] 5.16% | viability, T/C [29] 6.4% | viability, T/C [30] 5.39% | viability, T/C [35] 6.3% | viability, T/C [36] 4.96%
6.31: pIC50 (second compound 0.0316 µM)
6.36: pIC50 (second compound 0.316 µM)
6.35: pIC50 (second compound 0.1 µM)
6.30: pIC50 (second compound 10 µM)

CCCS(=O)(=O)Nc1ccc(F)c(C(=O)c2c[nH]c3ncc(-c4ccc(Cl)cc4)cc23)c1F + Cc1cccc(N(C)C(=O)C2C(O)CCN2c2nc(C)cc(C(F)(F)F)c2C#N)c1
inactive: viability, T/C [1] 98.8% | viability, T/C [2] 111% | viability, T/C [3] 99% | viability, T/C [4] 93.8% | viability, T/C [5] 86.3% | viability, T/C [6] 91.2% | viability, T/C [7] 104% | viability, T/C [8] 93.5% | viability, T/C [9] 93.4% | viability, T/C [10] 102% | viability, T/C [11] 96.5% | viability, T/C [12] 88.9% | viability, T/C [13] 105% | viability, T/C [14] 99.4% | viability, T/C [15] 90.3% | viability, T/C [16] 102% | viability, T/C [17] 97.7% | viability, T/C [18] 86.7% | viability, T/C [19] 105% | viability, T/C [20] 101% | viability, T/C [21] 102% | viability, T/C [22] 99.9% | viability, T/C [23] 107% | viability, T/C [24] 79.3% | viability, T/C [25] 111% | viability, T/C [26] 103% | viability, T/C [27] 104% | viability, T/C [28] 104% | viability, T/C [29] 93.7% | viability, T/C [30] 91.1% | viability, T/C [31] 96.4% | viability, T/C [32] 96% | viability, T/C [33] 109% | viability, T/C [34] 111% | viability, T/C [35] 94% | viability, T/C [36] 73.8%
< 5.00: pIC50 (second compound 0.0316 µM) | pIC50 (second compound 0.1 µM) | pIC50 (second compound 0.316 µM) | pIC50 (second compound 1 µM) | pIC50 (second compound 3.16 µM) | pIC50 (second compound 10 µM)
